# Values joined by “and” are separate entries in the source; they are usually repeats but may differ in a detail not shown here. Equal values may be shown once. “Also recorded” adds a separate entry of the source.
# Columns and labels:
# [1] = tested on: COX-2-expressing human 5637 cancer cells; experiment: Fluorocoxib D uptake by human 5637 cancer cells (fluorescence microscopy); format: cell-based; details: 50 nM, 30 min, COX-2-positive 5637 cells
# Description: Human 5637 cells were seeded on four-chamber slides (Nalge Nunc, Rochester, New York) and grown until reached 70% to 80% confluence. […] The nuclei of cells were stained with DAPI for 10 min, and slides were mounted using an aqueous mounting medium. Images of cells were captured by a Leica DMi8 fluorescent microscope with Hamamatsu Orca Flash 4.0LT Digital CMOS Camera (Leica Microsystems Inc., Chicago, Illinois) using Leica Application Suite X software (LASX, Leica).
# [2] = Pilot safety study: complete blood count (CBC); format: in vivo, dog
# Description: (§1) The animal studies were performed in the accordance with the University of Tennessee Institutional Animal Care and Use Committee (UT IACUC)-approved protocols and in an accordance with NIH guidelines. Individually housed research healthy female beagle dogs (Covance Research Product) with weights of 6.7 to 10.3 kg were used to assess the safety and pharmacokinetic parameters of fluorocoxib D administrated a dose of 1 mg/kg over 20 min intravenously (i.v.).
# (§2) For single dose safety evaluation studies, we administrated fluorocoxib D at 1 mg/kg , i.v. using a preplaced cephalic or saphenous vein catheter over 20 min to six healthy research dogs following protocol as described previously.[38] Briefly, physical examinations for signs of potential drug toxicity were performed before, during, and daily for 3 days after fluorocoxib D administration. Physical assessment included auscultation of heart and lungs, abdominal palpation, body temperature, appetite, attitude, activity levels monitoring, and other health-related events. Hypersensitivity was evaluated by direct observation of each dog during treatment for clinical signs of an allergic reaction (facial swelling, flushing, urticaria, dyspnea, scratching, and changes of heart rates). […] Laboratory evaluations of blood and urine were carried out before and 3 days after fluorocoxib D administration to monitor signs of toxicity. Blood (up to 3 ml) was collected into ethylenediaminetetraacetic acid (EDTA) and heparin-treated tubes, and urine (up to 5 ml) was collected by cystocentesis or from the floor of the runs. The laboratory evaluation consisted of a complete blood count (CBC), serum chemistry profile, and complete urinalysis. The CBC evaluated total white blood cells (WBC) and hematocrit (HCT), in addition to absolute numbers of neutrophils, lymphocytes, monocytes, eosinophils, and platelets. The plasma chemistry profile evaluated blood urea nitrogen (BUN), creatinine, proteins (albumin, globulins, and total proteins), alanine aminotransferase (ALT), total bilirubin, glucose, and electrolytes. The complete urinalysis evaluated urine proteins, glucose, and ketones; a sediment examination and urine-specific gravity were validated as well for any possible signs of renal toxicity of fluorocoxib D. All laboratory tests were carried out at the Veterinary Medical Center of the University of Tennessee in Knoxville.
# [3] = Pharmacokinetics of fluorocoxib D in research dogs, plasma HPLC; format: in vivo, dog
# Description: as §1
# To determine the pharmacokinetic parameters of fluorocoxib D ( 1 mg/kg , i.v.) in dogs, blood (2 to 3 ml) was collected from the jugular vein into EDTA-treated tubes at 0, 0.5, 1, 2, 4, 8, and 24 h after compound administration. The blood was centrifuged within 20 min of sample collection. Plasma was removed and stored at −80°C until further HPLC analysis.
# Levels of fluorocoxib D were determined in collected canine plasma samples using HPLC at Vanderbilt University (JU). The frozen samples were thawed and extracted with acetonitrile. The organic layer was collected, dried, and reconstituted in methanol and water. The unknown samples were quantitated against a 5-point standard curve, which was prepared by mixing known quantities of fluorocoxib D with commercial canine plasma (Sigma-Aldrich) and subjecting the resulting samples to liquid–liquid extraction and HPLC. Samples were analyzed using a reverse-phase column (C18, 5×0.2 cm , Phenomenex) with gradient elution. The mobile phase component A was water, and B was acetonitrile, each containing 0.1% acetic acid. The gradient was 50% B to 90% B over 5 min, followed by a brief hold and return to initial conditions. The flow rate was 0.3 ml/min .
# The pharmacokinetic parameters for fluorocoxib D were estimated from the plasma concentration-time data by a nonlinear mixed effects approach, as implemented with Monolix 4.1.2 (Lixoft S.A.S., Orsay, France). This approach allowed analyzing data from all animals at the same time and was ideal for relatively sparse datasets like the one used in this study. The plasma clearance (Cl), representing the overall ability of the body to eliminate fluorocoxib D, was determined by scaling its elimination rate (amount per time) by the corresponding plasma concentration level. The volume of distribution (Vd) was defined as the ratio of the total amount of fluorocoxib D in the body to the blood plasma concentration. The Cl and Vd were estimated directly from the study population data. The peak concentration in plasma ( Cmax ) and the following pharmacokinetic parameters were obtained by averaging the corresponding post-hoc Bayesian estimates. The individual partial areas under the curve between times 0 and 8 h ( AUC0−8 ) and the AUC0−∞ with extrapolation to infinity were calculated using the log-linear trapezoidal rule, as implemented with WinNonlin 5.1 (Pharsight, Mountain View, California). The mean residence time (MRT) value was determined as the ratio of the area under the first moment curve over AUC0−∞ . The elimination rate constant was determined as the slope obtained by linear regression of the terminal log-linear portion of the concentration versus time curve, and the elimination half-life ( t1/2 ) was then calculated. The plasma concentration graphs were generated using calculated averaged plasma concentrations of fluorocoxib D from six dogs after 1 mg/kg i.v. of fluorocoxib D administration performed over 20 min.
# [4] = Pilot safety study: serum chemistry profile; format: in vivo, dog; details: 3 days after single dose 1 mg/kg i.v.
# Description: as §1, §2
# [5] = Pilot safety study: physical examination and adverse events; format: in vivo, dog
# Description: as §1
# as §2, with “Blood (up to 3 ml) was collected into ethylenediaminetetraacetic acid (EDTA) and heparin-treated tubes, and urine (up to 5 ml) was collected by cystocentesis or from the floor of the runs. The laboratory evaluation consisted of a complete blood count (CBC), serum chemistry profile, and complete urinalysis.” left out
# COX1 = details: cited from earlier work
# [6] = set-up: method as in earlier work; details: cited from earlier work
# [7] = female, beagle, dog, plasma, iv, 1 mg/kg i.v., six research dogs, mean ± S.D.
structure (smiles),measurement,setting,value
"COc1ccc2c(c1)c(CC(=O)NCCCCNC(=O)c1ccc(C3=c4cc5c6c(c4Oc4c3cc3c7c4CCCN7CCC3)CCC[N+]=6CCC5)cc1)c(C)n2C(=O)c1ccc(Cl)cc1 [Fluorocoxib D, N -[(rhodamin-X-yl)but-4-yl]-2-[1-(4-chlorobenzoyl)-5-methoxy-2-methyl-1H-indol-3-yl]acetamide]",Uptake of fluorocoxib D by 5637 cells,[1],Selective uptake
same,"PLT EST (platelet estimate), After","[2]; 3 days after single dose 1 mg/kg i.v., dog #3, ADQ = adequate",ADQ
same,"PLT CNT (platelets counts), After","[2]; 3 days after single dose 1 mg/kg i.v., dog #3, reference range 147 to 423",241000 µL⁻¹
same,"Abs BAN (absolute band neutrophils), After","[2]; 3 days after single dose 1 mg/kg i.v., dog #6, reference range 0 to 0.3",0 µL⁻¹
same,"Abs EOS (absolute eosinophils), After","[2]; 3 days after single dose 1 mg/kg i.v., individual dogs #1-#6, reference range 0 to 0.85, 1 mg/kg",240 µL⁻¹ and 360 µL⁻¹ and 140 µL⁻¹ and 200 µL⁻¹ and 180 µL⁻¹ and 170 µL⁻¹
same,"Abs MON (absolute monocytes), After","[2]; 3 days after single dose 1 mg/kg i.v., individual dogs #1-#6, reference range 0.165 to 0.85, 1 mg/kg",230 µL⁻¹ and 300 µL⁻¹ and 240 µL⁻¹ and 490 µL⁻¹ and 380 µL⁻¹ and 620 µL⁻¹
same,"Abs LYM (absolute lymphocytes), After","[2]; 3 days after single dose 1 mg/kg i.v., individual dogs #1-#6, reference range 1.1 to 4.6, 1 mg/kg",1610 µL⁻¹ and 2050 µL⁻¹ and 2220 µL⁻¹ and 1880 µL⁻¹ and 2300 µL⁻¹
same,"Abs SEG (absolute segmented neutrophils), After","[2]; 3 days after single dose 1 mg/kg i.v., individual dogs #1-#6, reference range 2.65 to 9.8, 1 mg/kg",3.22 ×10^3/μl and 2.98 ×10^3/μl and 4 ×10^3/μl and 4.72 ×10^3/μl and 5.07 ×10^3/μl and 2.4 L ×10^3/μl
same,"WBC (white blood cells), After","[2]; 3 days after single dose 1 mg/kg i.v., individual dogs #1-#6, reference range 5.1 to 14, 1 mg/kg",5.3 ×10^3/μl (2×) and 5.7 ×10^3/μl and 6.6 ×10^3/μl and 7.3 ×10^3/μl and 7.8 ×10^3/μl
same,"HCT (hematocrit), After","[2]; 3 days after single dose 1 mg/kg i.v., individual dogs #1-#6, reference range 41 to 60, 1 mg/kg",45.2% and 47.2% (2×) and 45.6% and 47% and 48.1%
same,Neutrophil finding 3 days after administration,"[2]; dog #6, remained afebrile and clinically normal, cause uncertain",mild neutropenia
same,Peak concentration in plasma,"[3]; 1 mg/kg i.v. over 20 min, dogs, HPLC",114.8 ± 50.5 ng/mL
same,Detection in plasma after 4 h following administration,"[3]; 1 mg/kg i.v., dogs, HPLC",No fluorocoxib D was detected; also recorded: No detectable levels
same,Tmax,"[3]; female, beagle, dog, plasma, iv, 1 mg/kg i.v. over 20 min, dogs, read-out: Time of peak plasma concentration after administration",30 min
same,Cmax,"[3]; female, beagle, dog, plasma, iv, 1 mg/kg i.v. over 20 min, six research dogs, mean ± S.D.",110 ± 50 ng/mL
same,AUC(0-inf),[3]; [7],150 ± 50 ng·h/mL
same,MRT,[3]; [7],87.6 ± 25.2 min
same,AUC(0-t),"[3]; female, beagle, dog, plasma, iv, 1 mg/kg i.v., six research dogs, mean ± S.D., read-out: AUC0-8",110 ± 40 ng·h/mL
same,clearance,"[3]; female, beagle, dog, plasma, iv, 1 mg/kg i.v., six research dogs, mean ± S.D., read-out: Cl (clearance) (converted)",123 mL/min/kg
same,Vd,"[3]; female, beagle, dog, plasma, iv, 1 mg/kg i.v., six research dogs, mean ± S.D., read-out: Vdarea (volume of distribution)",9.97 ± 4.76 L/kg
same,half-life,"[3]; female, beagle, dog, plasma, iv, 1 mg/kg i.v., six research dogs, mean ± S.D., read-out: t1/2 (terminal/elimination half-life) (converted)",54.6 ± 17.4 min
same,"TOT BILI (total bilirubin), After","[4]; dogs #1, #3, #6, reference range 0.1 to 0.6",0.1 mg/dL
same,"CREATI (creatinine), After","[4]; individual dogs #1-#6, reference range 0.3 to 1.1, 1 mg/kg",0.8 mg/dL (3×) and 0.6 mg/dL (3×)
same,"MAG (magnesium), After","[4]; individual dogs #1-#6, reference range 0.65 to 0.98, 1 mg/kg",0.7 mmol/L (4×) and 0.8 mmol/L (2×)
same,"GLOB (globulin), After","[4]; individual dogs #1-#6, reference range 1.9 to 3.1, 1 mg/kg",2.3 g/dL (2×) and 2 g/dL (2×) and 2.6 g/dL and 2.1 g/dL
same,"PHOS (phosphorus), After","[4]; individual dogs #1-#6, reference range 2.5 to 5.9, 1 mg/kg",3.5 mg/dL and 4.3 mg/dL and 3.3 mg/dL and 3.9 mg/dL and 3.4 mg/dL and 3.6 mg/dL
same,"POTAS (potassium), After","[4]; individual dogs #1-#6, reference range 2.8 to 4.7, 1 mg/kg",3.9 mEq/L and 4.2 mEq/L and 3.7 mEq/L (2×) and 3.5 mEq/L and 3.8 mEq/L
same,"ALBUM (albumin), After","[4]; individual dogs #1-#6, reference range 3.2 to 4.3, 1 mg/kg",3.1 L g/dL and 3.4 g/dL (2×) and 3 L g/dL and 3.5 g/dL and 3.3 g/dL
same,"TOT. PROT (total proteins), After","[4]; individual dogs #1-#6, reference range 5.4 to 6.8, 1 mg/kg",5.4 g/dL (2×) and 5.7 g/dL and 5.6 g/dL (2×) and 5.2 L g/dL
same,"BUN (blood urea nitrogen), After","[4]; individual dogs #1-#6, reference range 7 to 37, 1 mg/kg",12 mg/dL and 17 mg/dL (2×) and 14 mg/dL and 16 mg/dL and 19 mg/dL
same,"CAL (calcium), After","[4]; individual dogs #1-#6, reference range 10 to 12, 1 mg/kg",9.5 L mg/dL and 10 mg/dL and 9.9 L mg/dL and 9.7 L mg/dL and 10.3 mg/dL and 9.4 L mg/dL
same,"ALT (alanine aminotransferase), After","[4]; individual dogs #1-#6, reference range 18 to 100, 1 mg/kg",26 U/L (2×) and 23 U/L and 22 U/L (2×) and 25 U/L
same,"GLUCO (glucose), After","[4]; individual dogs #1-#6, reference range 82 to 132, 1 mg/kg",94 mg/dL and 103 mg/dL and 100 mg/dL and 91 mg/dL and 105 mg/dL and 110 mg/dL
same,"CHLOR (chlorine), After","[4]; individual dogs #1-#6, reference range 112 to 119, 1 mg/kg",111 L mEq/L and 114 mEq/L (2×) and 113 mEq/L and 112 mEq/L and 116 mEq/L
same,"SOD (sodium), After","[4]; individual dogs #1-#6, reference range 141 to 147, 1 mg/kg",144 mEq/L and 146 mEq/L (2×) and 147 mEq/L (2×) and 148 H mEq/L
same,"Adverse events including diarrhea, vomiting, nausea, and loss of appetite","[5]; 1 mg/kg i.v. over 20 min, six research dogs",not observed
same,Overall safety / toxicity of single dose,"[5]; 1 mg/kg i.v. over 20 min, six research dogs, 3 days observation",No evidence of toxicity; also recorded: safe dose; also recorded: no clinically relevant adverse events
same,Salivation during administration,"[5]; one dog of six, during 20 min i.v. administration, attributed to DMSO solvent",increased salivation
same,IC50,COX1,4 µM
same,Water solubility compared to fluorocoxib A,[6],improved water solubility
